From patent publication US20200239587A1, “SENSITIZATION OF TUMORS TO THERAPIES THROUGH ENDOGLIN ANTAGONISM” (Cedars-Sinai Medical Center, priority 2016, published 2020)
Entries after “also recorded” stand apart in the source; their conditions may differ.

Assays:
[1] = test system: PCa patient-derived xenograft (PDX); assay: PCa patient-derived xenograft (PDX), immune-localization of CD105 and SFRP1; format: in vivo, mice
Source text: See also FIG. 15. […] Scale bar represents 100 μm. […] See also FIG. 16.

[2] = test system: C42B; assay: MTT proliferation assay; format: cell-based, human; details: enzalutamide alone, absence of fibroblastic cells; p<0.0001
Procedure: (§1) CW22Rv1, C42B, and PC3 cells from ATCC were expanded as directed. Prostatectomy specimens from Cedars-Sinai Medical Center or the Greater Los Angeles Veterans Affairs were cultured to generate NAF and CAF cells using the same method, as C57BL/6 mouse wild-type prostatic fibroblasts were grown as previously reported (Franco et al., 2011, Cancer research 71, 1272-1281; Kiskowski et al., 2011, Cancer research 68, 4709-4718). TRC105 and M1043 were provided by TRACON Pharmaceuticals, Inc. (San Diego, Calif.). Enzalutamide (Xtandi) was purchased from Medivation (San Francisco, Calif.).
(§2) 3000 cells per 96-well were treated for 72 hours using 5 wells per treatment. MTT reagent (M6494, Life Technologies) was prepared as directed, incubated for one hour at 37° C., and analyzed using manufacturer's recommendations.

[3] = test system: PC3 cells; assay: MTT proliferation assay; format: cell-based, human; details: enzalutamide, absence of TRC105; no androgen receptor expression
Procedure: as §1, §2

[4] = test system: Rv1; assay: MTT proliferation assay; format: cell-based, human; details: enzalutamide alone, absence of fibroblastic cells; p<0.0001
Procedure: as §1, §2

[5] = test system: CD105 cell surface expression in human CW22Rv1 epithelia and mouse prostatic fibroblasts; assay: 3D co-culture, CD105 cell surface expression by FACS; format: cell-based; details: enzalutamide vs vehicle; epithelial and fibroblastic populations
Procedure: After 72 hours, the cells were dissociated and assessed by FACS for CD105 expression as shown.
A modified version of the 3D organotypic co-culture system was performed in a collagen matrix similar to that previously reported (Stark et al., 1999, J Invest Dermatol 112, 681-691). Collagen matrix gels were prepared by mixing five volumes of rat tail collagen I with two volumes of matrigel (NCI), one volume of 10× DMEM medium (GE Healthcare Life Sciences), and one volume of FBS (Atlanta Biologicals), Rv1 and primary mouse prostatic fibroblasts were combined in a 1:3 ratio. Nylon squares were coated with collagen and placed on metal grids in a 6-well plate. Gel plugs (150 μl) were transferred onto the nylon squares and media was added to the level of the nylon mesh. After 72 hours, the cells were dissociated from the matrix with collagenase and dispersed for FACS analysis.
FACS experiments were performed with eBiosciences antibodies: anti-human Stro-1-FITC (340105), anti-human CD90-PE (12-0909-42), anti-human CD105-APC (17-1057-41), anti-mouse CD105-APC (17-1051-82), anti-human CD117-PE-Cy7 (15-1178-41), anti-human Ki67-PECy7 (25-5699-41), and anti-human EpCAM-PE (12-9326-41). All events were acquired on a BD LSRII flow cytometer in the Cedars-Sinai Medical Center FACS core installed with BD FACSDiva software. Files were analyzed using FlowJo software v10.2. […]

[6] = test system: tissue recombination orthotopic xenografts of primary human CAF and Rv1; assay: Tissue recombination orthotopic xenografts of primary human CAF and Rv1; details: castrated mice given enzalutamide vs control intact mice
Source text: FIG. 13A) Mice were orthotopically grafted with tissue recombinants of CW22Rv1 and CAF. […] FIG. 13B) H&E staining was followed by immune-localization for phosphorylated-histoneH3 (PH-H3), TUNEL, and chromogranin A (ChromA). Scale bar represents 32 μm. The mitotic (PH-H3) and cell death (TUNEL) indexes were plotted. n>5, error bars are mean+/−SD and *p<0.05, **p<0.01, ***p<0.001, compared to control unless otherwise indicated.
Male beige/SCID mice (Envigo), 6-8 or 10-12 weeks old, were used for subrenal capsule or prostatic orthotopic grafting, respectively, as previously described (Banerjee et al., 2014, Oncogene 33, 4924-4931; Hayward et al., 2001, Cancer Res 61, 8135-8142). In accordance with institutional animal care and use committee approval, 2×10^5 CW22Rv1 cells and 6×10^5 stromal cells were suspended in 20 μL type I collagen to be grafted into the subrenal capsule of mice castrated after seven days and sacrificed 21 days after castration. […] Tumor volume was calculated using the modified ellipsoid formula volume3=π/6×(width)2×length.
Paraffin embedded tissues were sectioned (5 μm thick) were subjected to hematoxylin and eosin (H&E) staining and immunohistochemistry as previously reported (Placencio et al., 2008, Cancer research 68, 4709-4718). […] Anti-phosphorylated histone H3 (06-570, Millipore), anti-CD105 (NCL-CD105, Leica Microsystems), anti-Ki67 (ab16667, Abcam), and anti-chromogranin A (sc-13090, Santa Cruz Biotechnology), anti-SFRP1 (601-401-475S, Rockland Immunochemicals), and anti-survivin (2808, Cell Signaling) antibodies were incubated at 4° C. overnight. Secondary antibody development was performed with Dako Cytomation mouse or rabbit kits and visualized using 3,3′-diaminobenzidine tetrahydrochloride substrate. TUNEL staining was performed per manufacturer's protocol (S7100, Millipore). Slides were scanned with a Leica Biosystems Aperio AT. Up to five fields per tissue were quantitated with Fiji (ImageJ) using a custom written macro. Mitotic and death index were quantitated by taking the total number of positively-stained nuclei divided by the total number of nuclei.

[7] = test system: 22Rv1 cells; assay: Total cellular ATP; format: cell-based, human; details: with or without 4 Gy, 0-168 hours
Procedure: Cells were analyzed for mito-stress test by Seahorse-XF 168 hours following 4 Gy of radiation in the presence of IgG or TRC105. FIG. 26A) Basal respiration, non-mito respiration, proton leak, spare respiratory capacity, FIG. 26B) extracellular acidification rate (ECAR) and FIG. 26C) mitochondrial dependent ATP production were quantitated using Wave 2.3.0 analysis. Data are reported as mean+/−S.D. of a representative experiment (n=5) of 3 independent experiments. FIGS. 26A-26C, the first/left column depicts 0Gy+IgG, the second column depicts 0Gy+TRC105, the third column depicts 4Gy+IgG and the last/right column depicts 4Gy+TRC105. FIG. 26D) 22Rv1 cells treated with IgG, TRC105 or nicotinamide were irradiated (4 Gy). Total cellular ATP was measured 0, 24, 72, 120, and 168 hours post radiation. Within each group, the left column is IgG, middle column is TRC105 and the right column is nicotinamide. Data are reported as mean+/−S.D. of 3 independent experiments. (***p<0.001, ****p<0.0001).

[8] = test system: p53 in 22Rv1 cells; assay: p53 status after irradiation; format: cell-based, human
Procedure: In search for an alternate process mediating TRC105 radiation sensitization the inventors examined changes in cell cycle. The impact of radiation on the cell cycle is well described, as causing a G2 cell cycle arrest that undergoes cell cycle redistribution. […] As SIRT1 has previously been reported to regulate p53 stability by de-acetylating p53, the inventors investigated p53 status with TRC105 treatment. 22Rv1 cells were treated with either TRC105 or 200 μM nicotinamide, an inhibitor of SIRT1 activity, prior to irradiation (4Gy). Cells were then collected at 0, 1, and 7 days post radiation to elucidate early and late p53 response. […] While loss-of-function p53 mutations are rare in prostate cancer, 90% of pancreatic cancers have p53 mutations. We therefore used two p53 mutant pancreatic cancer cell lines: HPAF-II and MIAPACA-2 to identify if TRC105 unresponsiveness to radiation was due to p53 loss of functionality.

[9] = test system: 22Rv1 cells; assay: Cell counts with oligomycin and irradiation; format: cell-based, human; details: irrespective of dose of oligomycin, 72 hrs; p<0.01
Procedure: 22Rv1 cells were treated with indicated doses of ATPase inhibitor, oligomycin and exposed to 4Gy irradiation. Within each group, the left column is 0 Gy and the right column is 4 Gy. Cell counts were performed 72 hrs. following irradiation. (**p<0.01, ***p<0.001)

[10] = test system: Rv1 cells; assay: Rv1 proliferation with recombinant SFRP1; format: cell-based, human; details: same doses of SFRP1, 72 hours
Source text: Associations between copy number (CN), gene expression (GE), and methylation (Me) are denoted by lines from one node to another (p<0.01).

[11] = test system: Rv1 cells; assay: Neuroendocrine gene panel in Rv1 treated with recombinant SFRP1; format: cell-based, human; details: 0, 0.01, 0.1, 1 μg/ml SFRP1; p<0.002
Source text: See also FIG. 15. […] Immunohistochemical localization of CD105 and SFRP1 in benign or PCa tissues are found in blood vessels (v), epithelia (e), and stroma (s), n=4. Scale bar represents 100 μm. FIG. 12E) Epithelial proliferation of human CW22Rv1, in 3D co-cultures with mouse prostatic fibroblasts, were co-stained for EpCam and Ki67 for FACS analysis. […] See also FIG. 16. […] Error bars are mean+/−SD and **p<0.01, ****p<0.0001, compared to control unless otherwise indicated.
Total RNA was extracted using the RNeasy kit (Qiagen). 1 μg RNA was used for cDNA synthesis using iSCRIPT cDNA synthesis kit (1708891, Bio-Rad). Quantitative RT-PCR was performed with 5 replicates using the Step One Real-Time PCR system (Applied Biosystems). Gene mRNA expression was normalized to GAPDH. Primer sequences can be found in the Table 1. For RNA-sequencing, Ion Proton AmpliSeq Transcriptome RNA Sequencing was performed achieving an average of 3M reads. We mapped an average of 88% of the reads to the human genome with Torrent Suite version 4.4.2.

[12] = test system: SIRT1 protein expression in 22Rv1; assay: Western blot for SIRT1 after BMP treatment; format: cell-based, human; details: serum-starved, 50 ng/ml BMP4 for 4 hours
Procedure: FIG. 20A) Western blot for SIRT1 expression measured in 22Rv1 cells following serum starvation and treatment with 50 ng/ml BMP4 for 4 hours. Phosphorylated Smad1/5 and β-actin was measured concurrently. FIG. 20B) SIRT1 mRNA expression was measured in CW22Rv1 under serum free conditions with 50 ng/ml BMP4, IgG in the context of increasing doses of TRC105 (0.05, 0.1, 0.5, 1, 5, or 10 μg/ml). SIRT1 mRNA expression was normalized to GAPDH and to serum treated control. FIG. 20C) Fold Change of SIRT1 mRNA in benign prostate and prostate cancer patients, obtained from R2-Genomics analysis is expressed (n=95). FIG. 20D) Immunohistochemical localization for SIRT1 expression in benign and prostate cancer tissues is indicated by arrows (Human Protein Atlas). The “e” and “s” indicate epithelia and stromal compartments in the tissues, respectively. FIG. 20E) SIRT1 mRNA expression was measured 72 hours following irradiation of 22Rv1 in a dose range of 0-6 Gy. FIG. 20F) SIRT1 mRNA expression was measured in a time course 0-72 hours following 4 Gy irradiation. SIRT1 mRNA expression was normalized to GAPDH and to untreated, 0 Gy. Data are reported as a mean+/−S.D. of 3 independent experiments (***p<0.001, ****p<0.0001).

CNC(=O)c1ccc(N2C(=S)N(c3ccc(C#N)c(C(F)(F)F)c3)C(=O)C2(C)C)cc1F [enzalutamide, reference compound]
SFRP1 expression in PDX ([1]; enzalutamide treatment): upregulated
CD105 expression in PDX tissues ([1]; following 4 days of enzalutamide administration): elevated in both epithelial and CAF populations
cell proliferation (MTT) [2]: significantly reduced cell proliferation
viability (MTT) [3]: insensitive
cell proliferation (MTT) [4]: significantly reduced cell proliferation; also recorded: sensitive to enzalutamide treatment
CD105 cell surface expression [5]: three-fold increase
cell turnover by phosphorylated-histone H3 and TUNEL [6]: statistically comparable to control intact mice
tumor volume [6]: statistically comparable to control intact mice; also recorded: did not significantly decrease tumor growth

NC(=O)c1cccnc1 [nicotinamide, reference compound]
cellular ATP stores [7]: depleted regardless of radiation treatment
acetylated and total-p53 ([8]; by 7 days post radiation): markedly increased
anti-apoptotic protein Bc1-2 ([8]; prior to 4Gy irradiation): decrease in the anti-apoptotic protein Bc1-2
p21 ([8]; prior to 4Gy irradiation): increase in p21
acetylated p53 ([8]; treatment prior to 4Gy, nicotinamide 200 μM): increase in acetylated p53

CC[C@H]1/C=C/C=C/C[C@@H](C)[C@H](O)[C@@](C)(O)C(=O)[C@@H](C)[C@H](O)[C@@H](C)C(=O)[C@@H](C)[C@H](O)[C@@H](C)/C=C/C(=O)O[C@@H]2[C@H](C)[C@H](CC1)O[C@]1(CC[C@H](C)[C@H](C[C@@H](C)O)O1)[C@H]2C [oligomycin]
cell proliferation by cell counting [9]: significantly reduced cell proliferation

B1: SFRP1: human recombinant SFRP1 (Secreted Frizzled Related Protein 1) (protein, UniProt Q8N474 32-314, looked up)
Secreted frizzled-related …: SEYDYVSFQSDIGPYQSGRFYTKPPQCVDIPADLRLCHNVGYKKMVLPNLLEHETMAEVKQQASSWVPLLNKNCHAGTQVFLCSLFAPVCLDRPIYPCRWLCEAVRDSCEPVMQFFGFYWPEMLKCDKFPEGDVCIAMTPPNATEASKPQGTTVCPPCDNELKSEAIIEHLCASEFALRMKIKEVKKENGDKKIVPKKKKPLKLGPIKKKDLKKLVLYLKNGADCPCHQLDNLSHHFLIMGRKVKSQYLLTAIHKWDKKNKEFKNFMKKMKNHECPTFQSVFK
epithelial proliferation [10]: no effect
expression of panel of 9 PCa NED genes [11]: significant induction of a panel of 9 PCa NED genes in a dose dependent manner

B2: BMP: bone morphogenic protein (BMP4, 50 ng/ml) used to stimulate 22Rv1 cells (protein, UniProt P12644 293-408, looked up)
Bone morphogenetic protein 4: SPKHHSQRARKKNKNCRRHSLYVDFSDVGWNDWIVAPPGYQAFYCHGDCPFPLADHLNSTNHAIVQTLVNSVNSSIPKACCVPTELSAISMLYLDEYDKVVLKNYQEMVVEGCGCR
SIRT1 protein expression [12]: induced SIRT1 protein expression
